{
  "source": "patent US11352339B2",
  "about": "(MISSION THERAPEUTICS LIMITED, priority 2016, dated 2022)",
  "data": [
    {"target": "USP30 (Homo sapiens (Human), UniProt Q70CQ3)", "sequence (Q70CQ3 57-517)": "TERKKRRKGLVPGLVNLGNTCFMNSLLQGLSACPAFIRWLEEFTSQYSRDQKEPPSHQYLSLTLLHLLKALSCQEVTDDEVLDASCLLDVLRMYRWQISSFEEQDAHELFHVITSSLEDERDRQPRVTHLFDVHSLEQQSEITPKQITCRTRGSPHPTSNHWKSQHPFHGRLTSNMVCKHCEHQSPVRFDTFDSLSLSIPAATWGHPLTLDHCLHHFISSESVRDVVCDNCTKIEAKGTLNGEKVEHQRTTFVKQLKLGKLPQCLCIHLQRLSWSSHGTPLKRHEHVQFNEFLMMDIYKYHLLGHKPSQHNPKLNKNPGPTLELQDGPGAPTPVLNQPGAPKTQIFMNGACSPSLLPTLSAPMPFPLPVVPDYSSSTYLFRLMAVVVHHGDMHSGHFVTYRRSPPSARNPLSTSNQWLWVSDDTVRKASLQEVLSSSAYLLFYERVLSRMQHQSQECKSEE", "assay": "USP30 Biochemical IC50 Assay", "conditions": "fluorescence polarisation, TAMRA labelled peptide linked to ubiquitin; 30 min pre-incubation, read after 2 h; read-out: IC50 range", "in_short": "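Enzyme preincubated 30 min at room temperature with compound, then 50 nM TAMRA-labelled isopeptide-linked ubiquitin–peptide substrate added. Fluorescence polarisation (ex 540/em 590 nm) read at once and after 2 h at room temperature; duplicate reactions.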", "units": {"IC50": "µM"}, "values": [
      {"smiles": "Cn1c([C@@H]2CCCN2C#N)nc2cc(-c3ccccc3)ccc21", "note": "[Example 96, (S)-2-(1-Methyl-5-phenyl-1H-benzo[d]imidazol-2-yl)pyrrolidine-1-carbonitrile]", "IC50": "10 to 100"},
      {"smiles": "CN(C)S(=O)(=O)c1cccc(-c2cccc(-c3nc(C4CCCN4C#N)no3)c2)c1", "note": "(centres unmarked) [Example 150, 3′-(3-(1-Cyanopyrrolidin-2-yl)-1,2,4-oxadiazol-5-yl)-N,N-dimethyl-[1,1′-biphenyl]-3-sulfonamide]", "IC50": "1 to 10"},
      {"smiles": "N#Cc1ccc(-c2cnc3[nH]c(C4CCN(C#N)C4)nc3c2)cc1", "note": "(single isomer, unassigned) [Example 91, 3-(6-(4-Cyanophenyl)-3H-imidazo[4,5-b]pyridin-2-yl)pyrrolidine-1-carbonitrile]", "IC50": "0.1 to 1"},
      {"smiles": "N#Cc1cc(-c2cc(-c3nc([C@@H]4CCCN4C#N)no3)cnn2)ccn1", "note": "[Example 204, (S)-4-(5-(3-(1-Cyanopyrrolidin-2-yl)-1,2,4-oxadiazol-5-yl)pyridazin-3-yl)picolinonitrile]", "IC50": "0.1 to 1"},
      {"smiles": "N#CN1CCC(c2ncc(-c3ccccc3)c(=O)[nH]2)C1", "note": "(centres unmarked) [Example 120, 3-(6-Oxo-5-phenyl-1,6-dihydropyrimidin-2-yl)pyrrolidine-1-carbonitrile]", "IC50": "1 to 10"},
      {"smiles": "N#Cc1cccc(-c2ccc3nc([C@@H]4CCCN4C#N)oc3c2)c1", "note": "[Example 128, (S)-2-(6-(3-Cyanophenyl)benzo[d]oxazol-2-yl)pyrrolidine-1-carbonitrile]", "IC50": "0.1 to 1"},
      {"smiles": "N#CN1CCC(c2cc(-c3ccc4ccccc4c3)n[nH]2)C1", "note": "(centres unmarked) [Example 18, 3-(3-(Naphthalen-2-yl)-1H-pyrazol-5-yl)pyrrolidine-1-carbonitrile]", "IC50": "0.1 to 1"},
      {"smiles": "N#CN1CCC(c2cnc3cc(-c4ccccc4)ccn23)C1", "note": "(centres unmarked) [Example 124, 3-(7-Phenylimidazo[1,2-a]pyridin-3-yl)pyrrolidine-1-carbonitrile]", "IC50": "0.1 to 1"},
      {"smiles": "C[C@H]1CN(C#N)C[C@@H]1c1[nH]nc(-c2cccc(-c3ccccc3)c2)c1F", "note": "[Example 22]", "IC50": "< 0.1"},
      {"smiles": "Cn1ncc2cc(-c3cccc(-c4nc(C5CCCN5C#N)no4)c3)ccc21", "note": "(centres unmarked) [Example 151]", "IC50": "0.1 to 1"},
      {"smiles": "CN1CCN(c2ccc(-c3cc(C4CCN(C#N)C4)[nH]n3)cc2)CC1", "note": "(centres unmarked) [Example 5, 3-(3-(4-(4-Methylpiperazin-1-yl)phenyl)-1H-pyrazol-5-yl)pyrrolidine-1-carbonitrile]", "IC50": "0.1 to 1"},
      {"smiles": "COc1ccc(-c2cccc(-c3nc(C4CCCN4C#N)no3)c2)cn1", "note": "(centres unmarked) [Example 158, 2-(5-(3-(6-Methoxypyridin-3-yl)phenyl)-1,2,4-oxadiazol-3-yl)pyrrolidine-1-carbonitrile]", "IC50": "1 to 10"},
      {"smiles": "N#Cc1ccc2ccc(-c3nc([C@@H]4CCCN4C#N)no3)cc2n1", "note": "(stereo in doubt) [Example 179, 7-(3-(1-Cyanopyrrolidin-2-yl)-1,2,4-oxadiazol-5-yl)quinoline-2-carbonitrile]", "IC50": "1 to 10"},
      {"smiles": "C[C@@H]1CN(C#N)C[C@H]1c1cc(-c2ccncc2)n[nH]1", "note": "(relative stereo) [Example 48, Trans-3-methyl-4-(3-(pyridin-4-yl)-1H-pyrazol-5-yl)pyrrolidine-1-carbonitrile]", "IC50": "1 to 10"},
      {"smiles": "N#CN1CCC(c2cc(-c3cccc(C(N)=O)c3)n[nH]2)C1", "note": "(centres unmarked) [Example 6, 3-(5-(1-Cyanopyrrolidin-3-yl)-1H-pyrazol-3-yl)benzamide]", "IC50": "1 to 10"},
      {"smiles": "COc1ncccc1-c1cccc(-c2nc(C3CCCN3C#N)no2)c1", "note": "(centres unmarked) [Example 162, 2-(5-(3-(2-Methoxypyridin-3-yl)phenyl)-1,2,4-oxadiazol-3-yl)pyrrolidine-1-carbonitrile]", "IC50": "0.1 to 1"},
      {"smiles": "C[C@@H]1CN(C#N)C[C@H]1c1n[nH]c(-c2cccc(-c3ccccc3)c2)n1", "note": "(single isomer, unassigned) [Example 116, Trans-3-(3-([1,1′-biphenyl]-3-yl)-1H-1,2,4-triazol-5-yl)-4-methylpyrrolidine-1-carbonitrile]", "IC50": "0.1 to 1"},
      {"smiles": "CNC(=O)c1ccc(-c2cc(C3CCN(C#N)C3)[nH]n2)cn1", "note": "(centres unmarked) [Example 3, 5-(5-(1-Cyanopyrrolidin-3-yl)-1H-pyrazol-3-yl)-N-methylpicolinamide]", "IC50": "1 to 10"},
      {"smiles": "N#CN1CCC(c2noc(C3CCN(c4ccccc4)C3)n2)C1", "note": "(centres unmarked) [Example 69, 3-(5-(1-Phenylpyrrolidin-3-yl)-1,2,4-oxadiazol-3-yl)pyrrolidine-1-carbonitrile]", "IC50": "0.1 to 1"},
      {"smiles": "N#Cc1ccc(-c2cccc(-c3nc([C@@H]4CCCN4C#N)no3)c2)cc1", "note": "[Example 174, (S)-2-(5-(4′-Cyano-[1,1′-biphenyl]-3-yl)-1,2,4-oxadiazol-3-yl)pyrrolidine-1-carbonitrile]", "IC50": "< 0.1"},
      {"smiles": "N#CN1CCC(c2cc(-c3cccc(-c4ccccc4)c3)n[nH]2)C1", "note": "(centres unmarked) [Example 14, 3-(3-([1,1′-Biphenyl]-3-yl)-1H-pyrazol-5-yl)pyrrolidine-1-carbonitrile]", "IC50": "0.1 to 1"},
      {"smiles": "N#CN1CCC(c2cc(-c3ccnc(-c4cccnc4)c3)n[nH]2)C1", "note": "(centres unmarked) [Example 47, 3-(3-([2,3′-Bipyridin]-4-yl)-1H-pyrazol-5-yl)pyrrolidine-1-carbonitrile]", "IC50": "0.1 to 1"},
      {"smiles": "CS(=O)(=O)c1ccc(-c2cccc(-c3nc(C4CCCN4C#N)no3)c2)cc1", "note": "(centres unmarked) [Example 153, 2-(5-(4′-(Methylsulfonyl)-[1,1′-biphenyl]-3-yl)-1,2,4-oxadiazol-3-yl)pyrrolidine-1-carbonitrile]", "IC50": "0.1 to 1"},
      {"smiles": "N#CN1CCC(c2nc3ccc(-c4ccc(C(=O)NCc5ccccc5)cc4)cc3[nH]2)C1", "note": "(centres unmarked) [Example 79, N-Benzyl-4-(2-(1-cyanopyrrolidin-3-yl)-1H-benzo[d]imidazol-6-yl)benzamide]", "IC50": "0.1 to 1"},
      {"smiles": "N#Cc1cccc(-c2ccc3oc([C@@H]4CCCN4C#N)nc3c2)c1", "note": "[Example 126, (S)-2-(5-(3-Cyanophenyl)benzo[d]oxazol-2-yl)pyrrolidine-1-carbonitrile]", "IC50": "0.1 to 1"},
      {"smiles": "Cn1ncc2cc(-c3ccc4oc([C@@H]5CCCN5C#N)nc4c3)ccc21", "note": "[Example 135, (S)-2-(5-(1-Methyl-1H-indazol-5-yl)-benzo[d]oxazol-2-yl)pyrrolidine-1-carbonitrile]", "IC50": "1 to 10"},
      {"smiles": "N#Cc1ccc2ccc(-c3nc([C@@H]4CCCN4C#N)no3)cc2c1", "note": "[Example 178, (S)-2-(5-(7-Cyanonaphthalen-2-yl)-1,2,4-oxadiazol-3-yl)pyrrolidine-1-carbonitrile]", "IC50": "0.1 to 1"},
      {"smiles": "C[C@@H]1CN(C#N)C[C@H]1c1cc(-c2cccc(-c3ccccc3)c2)n[nH]1", "note": "(relative stereo) [Example 19, Trans-3-(3-([1,1′-biphenyl]-3-yl)-1H-pyrazol-5-yl)-4-methylpyrrolidine-1-carbonitrile]", "IC50": "0.1 to 1"},
      {"smiles": "N#CN1CCC(c2noc(-c3ccccc3OCc3ccccc3)n2)C1", "note": "(centres unmarked) [Example 59, 3-(5-(2-(Benzyloxy)phenyl)-1,2,4-oxadiazol-3-yl)pyrrolidine-1-carbonitrile]", "IC50": "1 to 10"},
      {"smiles": "N#CN1CCC(c2n[nH]c(-c3cc(-c4ccccc4)ccn3)n2)C1", "note": "(centres unmarked) [Example 109, 3-(5-(4-Phenylpyridin-2-yl)-4H-1,2,4-triazol-3-yl)pyrrolidine-1-carbonitrile]", "IC50": "0.1 to 1"},
      {"smiles": "C[C@H]1CN(C#N)C[C@@H]1c1nc2cc(-c3ccccc3)ccc2[nH]1", "note": "(single isomer, unassigned) [Example 104, Trans-3-methyl-4-(5-phenyl-1H-benzo[d]imidazol-2-yl)pyrrolidine-1-carbonitrile]", "IC50": "0.1 to 1"},
      {"smiles": "N#CN1CCC(c2cc(-c3ccc(-c4ccccc4)nc3)n[nH]2)C1", "note": "(centres unmarked) [Example 40]", "IC50": "0.1 to 1"}
    ]}
  ]
}
